Reference: the NIST ThermoML archive (doi:10.1016/j.fluid.2018.07.028)
± gives the expanded uncertainty stated by the source.

Test: activity coefficient (dimensionless); of the first substance listed, at infinite dilution; xn = mol fraction of the nth substance listed
Settings: 101.33 kPa, Liquid, Chromatography, x1 = 0

C=CCCCCC [1-heptene] + CCCC[P+](CCCC)(CCCC)CCCC.O=S(=O)([N-]S(=O)(=O)C(F)(F)F)C(F)(F)F
activity coefficient (358.15 K): 3.96 ± 0.27 | activity coefficient (368.15 K): 4 ± 0.27 | activity coefficient (378.15 K): 4.05 ± 0.28 | activity coefficient (388.15 K): 4.09 ± 0.28 | activity coefficient (398.15 K): 4.13 ± 0.28 | activity coefficient (408.15 K): 4.17 ± 0.28

CCCCCO [pentan-1-ol] + CCCC[P+](CCCC)(CCCC)CCCC.O=S(=O)([N-]S(=O)(=O)C(F)(F)F)C(F)(F)F
activity coefficient (358.15 K): 1.81 ± 0.12 | activity coefficient (368.15 K): 1.76 ± 0.12 | activity coefficient (378.15 K): 1.71 ± 0.11 | activity coefficient (388.15 K): 1.67 ± 0.11 | activity coefficient (398.15 K): 1.63 ± 0.11 | activity coefficient (408.15 K): 1.59 ± 0.11

CCCCCCCC [octane] + CCCC[P+](CCCC)(CCCC)CCCC.O=S(=O)([N-]S(=O)(=O)C(F)(F)F)C(F)(F)F
activity coefficient (358.15 K): 6.69 ± 0.46 | activity coefficient (368.15 K): 6.62 ± 0.45 | activity coefficient (378.15 K): 6.56 ± 0.45 | activity coefficient (388.15 K): 6.5 ± 0.44 | activity coefficient (398.15 K): 6.44 ± 0.44 | activity coefficient (408.15 K): 6.39 ± 0.44

C=COC(C)=O [vinyl acetate] + CCCC[P+](CCCC)(CCCC)CCCC.O=S(=O)([N-]S(=O)(=O)C(F)(F)F)C(F)(F)F
activity coefficient (358.15 K): 0.983 ± 0.062 | activity coefficient (368.15 K): 1.01 ± 0.06 | activity coefficient (378.15 K): 1.04 ± 0.07 | activity coefficient (388.15 K): 1.07 ± 0.07 | activity coefficient (398.15 K): 1.1 ± 0.07 | activity coefficient (408.15 K): 1.13 ± 0.07

C1CCCCC1 [cyclohexane] + CCCC[P+](CCCC)(CCCC)CCCC.O=S(=O)([N-]S(=O)(=O)C(F)(F)F)C(F)(F)F
activity coefficient (358.15 K): 2.85 ± 0.19 | activity coefficient (368.15 K): 2.85 ± 0.19 | activity coefficient (378.15 K): 2.85 ± 0.19 | activity coefficient (388.15 K): 2.86 ± 0.19 | activity coefficient (398.15 K): 2.86 ± 0.19 | activity coefficient (408.15 K): 2.86 ± 0.19

O [water] + CCCC[P+](CCCC)(CCCC)CCCC.O=S(=O)([N-]S(=O)(=O)C(F)(F)F)C(F)(F)F
activity coefficient (358.15 K): 4.2 ± 0.29 | activity coefficient (368.15 K): 3.85 ± 0.26 | activity coefficient (378.15 K): 3.53 ± 0.24 | activity coefficient (388.15 K): 3.26 ± 0.22 | activity coefficient (398.15 K): 3.02 ± 0.21 | activity coefficient (408.15 K): 2.81 ± 0.19

C#CCCCC [1-hexyne] + CCCC[P+](CCCC)(CCCC)CCCC.O=S(=O)([N-]S(=O)(=O)C(F)(F)F)C(F)(F)F
activity coefficient (358.15 K): 1.88 ± 0.13 | activity coefficient (368.15 K): 1.94 ± 0.13 | activity coefficient (378.15 K): 2 ± 0.14 | activity coefficient (388.15 K): 2.06 ± 0.14 | activity coefficient (398.15 K): 2.11 ± 0.14 | activity coefficient (408.15 K): 2.17 ± 0.15

CCCO [propan-1-ol] + CCCC[P+](CCCC)(CCCC)CCCC.O=S(=O)([N-]S(=O)(=O)C(F)(F)F)C(F)(F)F
activity coefficient (358.15 K): 1.53 ± 0.1 | activity coefficient (368.15 K): 1.47 ± 0.1 | activity coefficient (378.15 K): 1.42 ± 0.09 | activity coefficient (388.15 K): 1.37 ± 0.09 | activity coefficient (398.15 K): 1.32 ± 0.09 | activity coefficient (408.15 K): 1.28 ± 0.08

CC(C)OC(C)C [diisopropyl ether] + CCCC[P+](CCCC)(CCCC)CCCC.O=S(=O)([N-]S(=O)(=O)C(F)(F)F)C(F)(F)F
activity coefficient (358.15 K): 2.88 ± 0.2 | activity coefficient (368.15 K): 2.94 ± 0.2 | activity coefficient (378.15 K): 3 ± 0.2 | activity coefficient (388.15 K): 3.05 ± 0.21 | activity coefficient (398.15 K): 3.11 ± 0.21 | activity coefficient (408.15 K): 3.17 ± 0.22

Cc1ccc(C)cc1 [1,4-dimethylbenzene] + CCCC[P+](CCCC)(CCCC)CCCC.O=S(=O)([N-]S(=O)(=O)C(F)(F)F)C(F)(F)F
activity coefficient (358.15 K): 1.55 ± 0.1 | activity coefficient (368.15 K): 1.6 ± 0.11 | activity coefficient (378.15 K): 1.64 ± 0.11 | activity coefficient (388.15 K): 1.69 ± 0.11 | activity coefficient (398.15 K): 1.74 ± 0.12 | activity coefficient (408.15 K): 1.79 ± 0.12

CCCCCCCCC [nonane] + CCCC[P+](CCCC)(CCCC)CCCC.O=S(=O)([N-]S(=O)(=O)C(F)(F)F)C(F)(F)F
activity coefficient (358.15 K): 8.31 ± 0.57 | activity coefficient (368.15 K): 8.15 ± 0.56 | activity coefficient (378.15 K): 8.01 ± 0.55 | activity coefficient (388.15 K): 7.87 ± 0.54 | activity coefficient (398.15 K): 7.74 ± 0.53 | activity coefficient (408.15 K): 7.62 ± 0.52

CCCCC [pentane] + CCCC[P+](CCCC)(CCCC)CCCC.O=S(=O)([N-]S(=O)(=O)C(F)(F)F)C(F)(F)F
activity coefficient (358.15 K): 3.61 ± 0.25 | activity coefficient (368.15 K): 3.62 ± 0.25 | activity coefficient (378.15 K): 3.65 ± 0.25 | activity coefficient (388.15 K): 3.66 ± 0.25 | activity coefficient (398.15 K): 3.68 ± 0.25 | activity coefficient (408.15 K): 3.7 ± 0.25

COC(C)(C)C [2-methoxy-2-methylpropane] + CCCC[P+](CCCC)(CCCC)CCCC.O=S(=O)([N-]S(=O)(=O)C(F)(F)F)C(F)(F)F
activity coefficient (358.15 K): 1.66 ± 0.11 | activity coefficient (368.15 K): 1.73 ± 0.12 | activity coefficient (378.15 K): 1.8 ± 0.12 | activity coefficient (388.15 K): 1.87 ± 0.13 | activity coefficient (398.15 K): 1.94 ± 0.13 | activity coefficient (408.15 K): 2.01 ± 0.14

CCC(=O)OC [methyl propanoate] + CCCC[P+](CCCC)(CCCC)CCCC.O=S(=O)([N-]S(=O)(=O)C(F)(F)F)C(F)(F)F
activity coefficient (358.15 K): 0.82 ± 0.053 | activity coefficient (368.15 K): 0.857 ± 0.055 | activity coefficient (378.15 K): 0.894 ± 0.057 | activity coefficient (388.15 K): 0.931 ± 0.059 | activity coefficient (398.15 K): 0.967 ± 0.061 | activity coefficient (408.15 K): 1 ± 0.06

c1ccsc1 [thiophene] + CCCC[P+](CCCC)(CCCC)CCCC.O=S(=O)([N-]S(=O)(=O)C(F)(F)F)C(F)(F)F
activity coefficient (358.15 K): 0.782 ± 0.051 | activity coefficient (368.15 K): 0.812 ± 0.053 | activity coefficient (378.15 K): 0.842 ± 0.054 | activity coefficient (388.15 K): 0.872 ± 0.056 | activity coefficient (398.15 K): 0.9 ± 0.057 | activity coefficient (408.15 K): 0.929 ± 0.059

CCCCCC [hexane] + CCCC[P+](CCCC)(CCCC)CCCC.O=S(=O)([N-]S(=O)(=O)C(F)(F)F)C(F)(F)F
activity coefficient (358.15 K): 4.39 ± 0.3 | activity coefficient (368.15 K): 4.41 ± 0.3 | activity coefficient (378.15 K): 4.44 ± 0.3 | activity coefficient (388.15 K): 4.46 ± 0.3 | activity coefficient (398.15 K): 4.49 ± 0.31 | activity coefficient (408.15 K): 4.51 ± 0.31

COC(C)=O [methyl ethanoate] + CCCC[P+](CCCC)(CCCC)CCCC.O=S(=O)([N-]S(=O)(=O)C(F)(F)F)C(F)(F)F
activity coefficient (358.15 K): 0.753 ± 0.05 | activity coefficient (368.15 K): 0.785 ± 0.051 | activity coefficient (378.15 K): 0.816 ± 0.053 | activity coefficient (388.15 K): 0.847 ± 0.054 | activity coefficient (398.15 K): 0.878 ± 0.056 | activity coefficient (408.15 K): 0.909 ± 0.058

C=CCCC [1-pentene] + CCCC[P+](CCCC)(CCCC)CCCC.O=S(=O)([N-]S(=O)(=O)C(F)(F)F)C(F)(F)F
activity coefficient (358.15 K): 2.61 ± 0.18 | activity coefficient (368.15 K): 2.66 ± 0.18 | activity coefficient (378.15 K): 2.7 ± 0.18 | activity coefficient (388.15 K): 2.74 ± 0.19 | activity coefficient (398.15 K): 2.78 ± 0.19 | activity coefficient (408.15 K): 2.82 ± 0.19

CC(C)(C)O [2-methylpropan-2-ol] + CCCC[P+](CCCC)(CCCC)CCCC.O=S(=O)([N-]S(=O)(=O)C(F)(F)F)C(F)(F)F
activity coefficient (358.15 K): 1.41 ± 0.09 | activity coefficient (368.15 K): 1.4 ± 0.09 | activity coefficient (378.15 K): 1.38 ± 0.09 | activity coefficient (388.15 K): 1.37 ± 0.09 | activity coefficient (398.15 K): 1.36 ± 0.09 | activity coefficient (408.15 K): 1.35 ± 0.09

CCC[N+](=O)[O-] [1-nitropropane] + CCCC[P+](CCCC)(CCCC)CCCC.O=S(=O)([N-]S(=O)(=O)C(F)(F)F)C(F)(F)F
activity coefficient (358.15 K): 0.693 ± 0.047 | activity coefficient (368.15 K): 0.708 ± 0.047 | activity coefficient (378.15 K): 0.724 ± 0.048 | activity coefficient (388.15 K): 0.739 ± 0.049 | activity coefficient (398.15 K): 0.754 ± 0.05 | activity coefficient (408.15 K): 0.768 ± 0.05

CC#N [acetonitrile] + CCCC[P+](CCCC)(CCCC)CCCC.O=S(=O)([N-]S(=O)(=O)C(F)(F)F)C(F)(F)F
activity coefficient (358.15 K): 0.602 ± 0.042 | activity coefficient (368.15 K): 0.613 ± 0.043 | activity coefficient (378.15 K): 0.625 ± 0.043 | activity coefficient (388.15 K): 0.635 ± 0.044 | activity coefficient (398.15 K): 0.645 ± 0.044 | activity coefficient (408.15 K): 0.655 ± 0.045

CCCCCCCCCC [decane] + CCCC[P+](CCCC)(CCCC)CCCC.O=S(=O)([N-]S(=O)(=O)C(F)(F)F)C(F)(F)F
activity coefficient (358.15 K): 10.4 ± 0.7 | activity coefficient (368.15 K): 10.1 ± 0.7 | activity coefficient (378.15 K): 9.88 ± 0.67 | activity coefficient (388.15 K): 9.67 ± 0.66 | activity coefficient (398.15 K): 9.47 ± 0.65 | activity coefficient (408.15 K): 9.29 ± 0.63

Cc1cccc(C)c1 [1,3-dimethylbenzene] + CCCC[P+](CCCC)(CCCC)CCCC.O=S(=O)([N-]S(=O)(=O)C(F)(F)F)C(F)(F)F
activity coefficient (358.15 K): 1.53 ± 0.1 | activity coefficient (368.15 K): 1.58 ± 0.1 | activity coefficient (378.15 K): 1.63 ± 0.11 | activity coefficient (388.15 K): 1.68 ± 0.11 | activity coefficient (398.15 K): 1.72 ± 0.12 | activity coefficient (408.15 K): 1.77 ± 0.12
